Like-named read-outs stand apart in the source and are kept apart here.
Molecular target: T1, F508delCFTR (Homo sapiens, UniProt P13569, DEL508-508)
T1 construct: expressed in transfected cells; host or cells: CFBE41o- human lung-derived epithelial cells (CFBE4lo-F508delCFTR-HRP), doxycycline-inducible
Assay: Cell Surface Expression-Horse Radish Peroxidase (CSE-HRP) Assay;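 for Maximum % activity (with co-corrector): co-corrector and positive control are both the same reference corrector at 2 µM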;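 for Maximum % activity (without co-corrector): percent of the 2 µM on-plate positive control corrector response above DMSO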
Type: cell-based
Settings: for Emax: read-out: Maximum % activity (without co-corrector)

[1] = test compound without co-corrector, maximum at any tested concentration, normalized to on-plate positive control
[2] = test compound without co-corrector, read-out: EC50 (without co-corrector)
[3] = with co-corrector (2 μM of 3-[(2R,4R)-4-({[1-(2,2-difluoro-1,3-benzodioxol-5-yl)cyclopropyl]carbonyl}amino)-7-methoxy-3,4-dihydro-2H-chromen-2-yl]benzoic acid), maximum at any tested concentration, normalized to on-plate positive control
[4] = with co-corrector (2 μM of 3-[(2R,4R)-4-({[1-(2,2-difluoro-1,3-benzodioxol-5-yl)cyclopropyl]carbonyl}amino)-7-methoxy-3,4-dihydro-2H-chromen-2-yl]benzoic acid), read-out: EC50 (with co-corrector)
[5] = CSE-HRP, test compound without co-corrector, read-out: EC50 (without co-corrector)
[6] = CSE-HRP, with co-corrector (2 μM of 3-[(2R,4R)-4-({[1-(2,2-difluoro-1,3-benzodioxol-5-yl)cyclopropyl]carbonyl}amino)-7-methoxy-3,4-dihydro-2H-chromen-2-yl]benzoic acid), read-out: EC50 (with co-corrector)
[7] = CSE-HRP, with co-corrector (2 μM), maximum at any tested concentration, normalized to on-plate positive control
[8] = CSE-HRP, without co-corrector, maximum at any tested concentration, normalized to on-plate positive control
[9] = with co-corrector (2 μM), maximum at any tested concentration, normalized to on-plate positive control
[10] = without co-corrector, maximum at any tested concentration, normalized to on-plate positive control

T1 sequence (P13569 with tags, fused parts or gaps DEL508-508): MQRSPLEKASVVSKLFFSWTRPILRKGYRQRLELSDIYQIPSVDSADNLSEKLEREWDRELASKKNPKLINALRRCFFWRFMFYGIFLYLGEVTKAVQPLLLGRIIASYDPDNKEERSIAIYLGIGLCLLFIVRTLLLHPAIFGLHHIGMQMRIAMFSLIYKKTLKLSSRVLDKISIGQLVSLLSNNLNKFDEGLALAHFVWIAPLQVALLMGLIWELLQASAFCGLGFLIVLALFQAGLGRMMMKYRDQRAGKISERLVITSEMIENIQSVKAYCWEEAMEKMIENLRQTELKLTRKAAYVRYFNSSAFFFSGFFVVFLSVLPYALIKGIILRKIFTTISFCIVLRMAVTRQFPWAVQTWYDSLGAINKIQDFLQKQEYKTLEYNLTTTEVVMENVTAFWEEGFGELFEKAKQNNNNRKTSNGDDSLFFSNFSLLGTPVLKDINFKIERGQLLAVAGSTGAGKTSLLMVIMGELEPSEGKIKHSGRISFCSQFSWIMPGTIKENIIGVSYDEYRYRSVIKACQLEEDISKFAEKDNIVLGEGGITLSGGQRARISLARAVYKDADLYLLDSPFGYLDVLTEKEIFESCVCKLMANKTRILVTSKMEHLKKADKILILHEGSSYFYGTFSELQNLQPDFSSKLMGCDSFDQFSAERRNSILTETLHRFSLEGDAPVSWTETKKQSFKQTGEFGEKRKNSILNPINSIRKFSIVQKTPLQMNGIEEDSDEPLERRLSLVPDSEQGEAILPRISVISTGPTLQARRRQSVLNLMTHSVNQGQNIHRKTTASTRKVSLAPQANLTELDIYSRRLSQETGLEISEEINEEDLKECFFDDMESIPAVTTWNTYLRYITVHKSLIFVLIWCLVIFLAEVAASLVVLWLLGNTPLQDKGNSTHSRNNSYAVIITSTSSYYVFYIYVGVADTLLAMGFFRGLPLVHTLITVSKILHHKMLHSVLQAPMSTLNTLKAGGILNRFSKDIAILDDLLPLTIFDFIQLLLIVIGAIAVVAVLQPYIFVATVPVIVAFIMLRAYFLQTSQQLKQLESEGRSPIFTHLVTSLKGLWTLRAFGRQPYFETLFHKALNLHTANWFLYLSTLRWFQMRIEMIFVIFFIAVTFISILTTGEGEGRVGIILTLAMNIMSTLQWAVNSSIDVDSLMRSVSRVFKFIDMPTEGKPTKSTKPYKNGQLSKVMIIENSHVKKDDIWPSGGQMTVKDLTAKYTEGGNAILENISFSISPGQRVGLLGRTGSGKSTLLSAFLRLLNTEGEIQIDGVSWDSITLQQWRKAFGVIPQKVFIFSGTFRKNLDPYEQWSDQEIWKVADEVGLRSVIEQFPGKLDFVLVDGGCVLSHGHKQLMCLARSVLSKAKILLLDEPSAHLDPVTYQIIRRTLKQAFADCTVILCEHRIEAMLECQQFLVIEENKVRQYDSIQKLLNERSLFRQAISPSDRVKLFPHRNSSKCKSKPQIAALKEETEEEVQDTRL

CC(C)(C)[C@@H]1[C@@H](NCc2cccnc2N2CCOCC2)[C@@H](c2ccccc2)N(C(=O)C2CCCCC2)[C@H]1C(=O)O (racemic) [III-28]
Emax [1]: < 100%
EC50 [2]: 1000 to 10000 nM
Maximum % activity (with co-corrector) [3]: ++ (≥150 and <350)
EC50 [4]: 1000 to 10000 nM

COc1ncc(-c2ccc(C)cc2)cc1CN[C@H]1[C@H](C(C)(C)C)[C@@H](C(=O)O)N(C(=O)C2CCCCC2)[C@H]1c1cccnc1N(C)C [II-410]
Emax [1]: 100 to 200%
EC50 [2]: < 1000 nM
Maximum % activity (with co-corrector) [3]: +++ (≥350)
EC50 [4]: < 1000 nM

COc1ccc(Cl)cc1CN[C@@H]1[C@@H](C2CC2)[C@H](C(=O)O)N(C(=O)C2CCCCC2)[C@@H]1c1ccccc1 (racemic) [II-12]
EC50 [5]: 1000 to 10000 nM
EC50 [6]: 1000 to 10000 nM
Maximum % activity (with co-corrector) [7]: +++ (≥350)
Emax [8]: 100 to 200%

COc1nc(C(C)(C)C)ccc1CN[C@H]1[C@H](C(C)(C)C)[C@@H](C(=O)O)N(C(=O)OC(C)C)[C@H]1c1ccccc1F [II-519]
Emax [1]: 100 to 200%
EC50 [2]: 1000 to 10000 nM
Maximum % activity (with co-corrector) [3]: +++ (≥350)
EC50 [4]: < 1000 nM

COc1ccc(C(C)(C)C)cc1CN[C@H]1[C@H](C(C)(C)C)[C@@H](C(=O)O)N(C(=O)C2Cc3ccccc3O2)[C@H]1c1cccnc1OC (single isomer, unassigned) [Example I-166]
EC50 [2]: 1000 to 10000 nM
EC50 [4]: < 1000 nM
Maximum % activity (with co-corrector) [9]: +++ (≥350)
Maximum % activity (without co-corrector) [10]: + (<100)

CC(C)(C)[C@H]1[C@H](NCC2(c3cccc(Cl)c3)CCOCC2)[C@H](c2ccccc2)N(C(=O)C2CCCCC2)[C@@H]1C(=O)O [Example 63, (2S,3S,4S,5S)-3-tert-butyl-4-({[4-(3-chlorophenyl)oxan-4-yl]methyl}amino)-1-(cyclohexanecarbonyl)-5-phenylpyrrolidine-2-carboxylic acid]
EC50 [2]: 1000 to 10000 nM
EC50 [4]: 1000 to 10000 nM
Maximum % activity (with co-corrector) [9]: +++ (≥350)
Emax [10]: < 100%

COc1ccc(C(C)(C)C)cc1CN[C@H]1[C@H](C(C)(C)C)[C@@H](C(=O)O)N(C(=O)[C@@H]2CCCC(F)(F)C2)[C@H]1c1ccccc1 [Example 31, (2S,3S,4S,5S)-3-tert-butyl-4-{[(5-tert-butyl-2-methoxyphenyl)methyl]amino}-1-[(1R)-3,3-difluorocyclohexane-1-carbonyl]-5-phenylpyrrolidine-2-carboxylic acid]
EC50 [2]: < 1000 nM
EC50 [4]: < 1000 nM
Maximum % activity (with co-corrector) [9]: +++ (≥350)
Emax [10]: > 200%

COc1ncc(C(F)(F)F)cc1CN[C@H]1[C@H](C(C)(C)C)[C@@H](C(=O)O)N(C(=O)C2CCCCC2)[C@H]1c1ccccc1C [Example I-258]
EC50 [5]: < 1000 nM
EC50 [6]: < 1000 nM
Maximum % activity (with co-corrector) [7]: +++ (≥350)
Emax [8]: 100 to 200%

COc1ccc(C(C)(C)C)cc1CN[C@H]1[C@H](C(C)(C)C)[C@@H](C(=O)O)N(C(=O)CN2CCOCC2)[C@H]1c1ccccc1 [II-209]
EC50 [5]: 1000 to 10000 nM
EC50 [6]: 1000 to 10000 nM
Maximum % activity (with co-corrector) [7]: +++ (≥350)
Emax [8]: 100 to 200%

COc1ncc(C(F)(F)F)cc1N[C@H]1[C@H](C(C)(C)C)[C@@H](C(=O)O)N(C(=O)C2CCCCC2)[C@H]1c1ccccc1 [Example 114, (2S,3S,4S,5S)-3-tert-butyl-1-(cyclohexanecarbonyl)-4-{[2-methoxy-5-(trifluoromethyl)pyridin-3-yl]amino}-5-phenylpyrrolidine-2-carboxylic acid]
EC50 [2]: < 1000 nM
EC50 [4]: < 1000 nM
Maximum % activity (with co-corrector) [9]: +++ (≥350)
Emax [10]: < 100%

COc1ccc(C(C)(C)C)cc1CN[C@H]1[C@H](C(C)(C)C)[C@@H](C(=O)O)N(C(=O)[C@@H]2CCCO2)[C@H]1c1ccccc1C1CC1 [Example 108, (2S,3S,4S,5S)-3-tert-butyl-4-{[(5-tert-butyl-2-methoxyphenyl)methyl]amino}-5-(2-cyclopropylphenyl)-1-[(2S)-oxolane-2-carbonyl]pyrrolidine-2-carboxylic acid]
EC50 [2]: 1000 to 10000 nM
EC50 [4]: 1000 to 10000 nM
Maximum % activity (with co-corrector) [9]: +++ (≥350)
Emax [10]: > 200%

COc1ccc(C(C)(C)C)cc1CN[C@H]1[C@H](C(C)(C)C)[C@@H](C(=O)O)N(C(=O)CC2CCC(F)(F)C2)[C@H]1c1ccccc1 (stereo partly shown) [II-218]
EC50 [5]: 1000 to 10000 nM
EC50 [6]: 1000 to 10000 nM
Maximum % activity (with co-corrector) [7]: +++ (≥350)
Emax [8]: 100 to 200%

COc1ccc(C(C)(C)C)cc1CN[C@H]1[C@H](C(C)(C)C)[C@@H](C(=O)O)N(C(=O)c2ccc3c(c2)OCCO3)[C@H]1c1cccnc1N(C)C [Example I-199]
EC50 [2]: 1000 to 10000 nM
EC50 [4]: 1000 to 10000 nM
Maximum % activity (with co-corrector) [9]: +++ (≥350)
Emax [10]: 100 to 200%

COc1ccc(-c2ccccc2)cc1CN[C@H]1[C@H](C(C)(C)OC)[C@@H](C(=O)O)N(C(=O)C2CCCCC2)[C@H]1c1ccccc1 [Example I-87]
EC50 [2]: < 1000 nM
EC50 [4]: < 1000 nM
Maximum % activity (with co-corrector) [9]: +++ (≥350)
Emax [10]: > 200%

COc1ncc(C2CCCC2)cc1CN[C@H]1[C@H](C(C)(C)C)[C@@H](C(=O)O)N(C(=O)C2CCCCC2)[C@H]1c1cccnc1N(C)C [Example I-132]
EC50 [2]: 1000 to 10000 nM
EC50 [4]: 1000 to 10000 nM
Maximum % activity (with co-corrector) [9]: +++ (≥350)
Emax [10]: > 200%

Cc1c(N[C@H]2[C@H](C(C)(C)C)[C@@H](C(=O)O)N(C(=O)C3CCCCC3)[C@H]2c2ccccc2)c(Cl)nc2ccc(F)cc12 [II-144]
EC50 [5]: 1000 to 10000 nM
EC50 [6]: 1000 to 10000 nM
Maximum % activity (with co-corrector) [7]: +++ (≥350)
Emax [8]: 100 to 200%

CCc1ccccc1[C@H]1[C@@H](NCc2cc(C3CCC3)cnc2OC)[C@H](C(C)(C)C)[C@@H](C(=O)O)N1C(=O)[C@@H]1CCCCO1 [Example I-297]
EC50 [5]: 1000 to 10000 nM
EC50 [6]: < 1000 nM
Maximum % activity (with co-corrector) [7]: +++ (≥350)
Emax [8]: > 200%

COc1ncc(C2CCC2)cc1CN[C@H]1[C@H](C(C)(C)C)[C@@H](C(=O)O)N(C(=O)C2C3CCCC32)[C@H]1c1cccnc1N(C)C (stereo partly shown) [II-518]
Emax [1]: 100 to 200%
EC50 [2]: 1000 to 10000 nM
Maximum % activity (with co-corrector) [3]: +++ (≥350)
EC50 [4]: 1000 to 10000 nM

COc1ncc(C(F)(F)F)cc1CN[C@H]1[C@H](C(C)(C)C)[C@@H](C(=O)O)N(C(=O)[C@@H]2CCCO2)[C@H]1c1cccnc1N(C)C [II-596]
Emax [1]: < 100%
EC50 [2]: 1000 to 10000 nM
Maximum % activity (with co-corrector) [3]: ++ (≥150 and <350)
EC50 [4]: 1000 to 10000 nM

COc1ncc([Si](C)(C)C)cc1CN[C@H]1[C@H](C(C)(C)C)[C@@H](C(=O)O)N(C(=O)C2CCCCC2)[C@H]1c1ccccc1 [Example 47, (2S,3S,4S,5S)-3-tert-butyl-1-(cyclohexanecarbonyl)-4-({[2-methoxy-5-(trimethylsilyl)pyridin-3-yl]methyl}amino)-5-phenylpyrrolidine-2-carboxylic acid]
EC50 [2]: < 1000 nM
EC50 [4]: < 1000 nM

COc1ncc(C2CCC2)cc1CN[C@H]1[C@H](C(C)(C)C)[C@@H](C(=O)O)N(C(=O)OC(C)C)[C@H]1c1ccccc1 [Example I-214]
EC50 [2]: 1000 to 10000 nM
EC50 [4]: 1000 to 10000 nM
Maximum % activity (with co-corrector) [9]: +++ (≥350)
Emax [10]: > 200%

COc1ccc(C(C)(C)C)cc1CN[C@H]1[C@H](C(C)(C)C)[C@@H](C(=O)O)N(C(=O)[C@H]2[C@H](C(F)(F)F)[C@H]3CC[C@@H]2O3)[C@H]1c1ccccc1 (relative stereo) [II-506]
Emax [1]: > 200%
EC50 [2]: 1000 to 10000 nM
Maximum % activity (with co-corrector) [3]: +++ (≥350)
EC50 [4]: < 1000 nM

COc1ccc(C(C)(C)C)cc1CN[C@H]1[C@H](C(C)(C)C)[C@@H](C(=O)O)N(C(=O)CC2=CCCC2)[C@H]1c1ccccc1 [II-234]
EC50 [5]: 1000 to 10000 nM
EC50 [6]: 1000 to 10000 nM
Maximum % activity (with co-corrector) [7]: +++ (≥350)
Emax [8]: > 200%

CC(C)(C)[C@H]1[C@H](Nc2cc(C#N)cc(Cl)n2)[C@H](c2ccccc2)N(C(=O)C2CCCCC2)[C@@H]1C(=O)O [III-146]
Emax [1]: < 100%
EC50 [2]: > 10000 nM
EC50 [4]: 1000 to 10000 nM
Maximum % activity (with co-corrector) [9]: ++ (≥150 and <350)

COc1ncc(C(F)(F)F)cc1CN[C@H]1[C@H](C(C)(C)C)[C@@H](C(=O)O)N(C(=O)C2CCCCC2)[C@H]1c1ccccc1 [Example 12, (2S,3S,4S,5S)-3-tert-butyl-1-(cyclohexanecarbonyl)-4-({[2-methoxy-5-(trifluoromethyl)pyridin-3-yl]methyl}amino)-5-phenylpyrrolidine-2-carboxylic acid]
EC50 [2]: < 1000 nM
EC50 [4]: < 1000 nM
Maximum % activity (with co-corrector) [9]: +++ (≥350)
Emax [10]: 100 to 200%

COc1ncc(C(C)(C)C)cc1CN[C@H]1[C@H](C(C)(C)C)[C@@H](C(=O)O)N(C(=O)Cc2c(F)cccc2F)[C@H]1c1ccccc1 [II-301]
EC50 [5]: 1000 to 10000 nM
EC50 [6]: < 1000 nM
Maximum % activity (with co-corrector) [7]: +++ (≥350)
Emax [8]: > 200%

COc1ccc(C2(C(F)(F)F)CC2)cc1CN[C@H]1[C@H](C(C)(C)C)[C@@H](C(=O)O)N(C(=O)OC(C)C)[C@H]1c1ccccc1 [Example I-141]
EC50 [2]: 1000 to 10000 nM
EC50 [4]: < 1000 nM
Maximum % activity (with co-corrector) [9]: +++ (≥350)
Emax [10]: > 200%

Source: patent US20180099931A1 (AbbVie S.à.r.l., priority 2016, published 2018)
